Consider 20 molecules from patent US8492559B2, “Substituted indole compounds” (Gruenenthal GmbH, priority 2009, dated 2013).

For the assay, the target named is T1, B1R receptor of the rat (rB1R) (Rattus norvegicus, UniProt P97583).
T1 construct: expressed in transfected cells; host or cells: CHO K1 cells
T1 sequence (P97583 1-337): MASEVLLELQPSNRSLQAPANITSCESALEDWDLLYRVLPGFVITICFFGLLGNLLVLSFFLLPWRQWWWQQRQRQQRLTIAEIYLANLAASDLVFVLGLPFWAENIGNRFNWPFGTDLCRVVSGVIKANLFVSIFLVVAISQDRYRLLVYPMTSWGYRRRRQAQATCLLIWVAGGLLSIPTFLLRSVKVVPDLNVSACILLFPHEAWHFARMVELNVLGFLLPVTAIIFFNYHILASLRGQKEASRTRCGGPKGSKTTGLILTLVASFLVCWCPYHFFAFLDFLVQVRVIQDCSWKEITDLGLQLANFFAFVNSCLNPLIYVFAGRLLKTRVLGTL
The assay can be described thus: Functional investigation on the bradykinin 1 receptor (B1R), FLIPR Ca2+ assay, rB1R cells. Conditions: CHO-K1, 10 μM test substance; CHO K1 cells with rat B1R; agonist Des-Arg9 bradykinin; % of maximum achievable inhibition; read-out: B1R antagonism, rat [10 μM] % inhibition. Type of assay: cell-based. Here is the method:
The indication in % activation is based on the Ca^2+ signal after addition of Lys-Des-[…] bradykinin (0.5 nM) or Des-[…] bradykinin (100 nM). Antagonists lead to a suppression of the Ca^2+ influx following administration of the agonist. The % inhibition in comparison with the maximum achievable inhibition is indicated. […] According to this assay, the Ca^2+ inflow through the channel is quantified with the aid of a Ca^2+-sensitive dye (Fluo-4 type, Molecular Probes Europe BV, Leiden, Netherlands) in a fluorescent imaging plate reader (FLIPR, Molecular Devices, Sunnyvale, USA). […] For functional investigations these cells are plated-out onto black 96-well plates with a clear base (BD Biosciences, Heidelberg, Germany or Greiner, Frickenhausen, Germany) in a density of 20,000-35,000 cells/well. Overnight the cells are incubated at 37° C. and 5% CO2 in culture medium (hB1R cells: Ham's Nutrient Mixture F12, Gibco Invitrogen GmbH, Karlsruhe, Germany or DMEM, Sigma-Aldrich, Taufkirchen, Germany; rB1R cells: D-MEM/F12, Gibco Invitrogen, Karlsruhe, Germany) with 10 vol. % FBS (foetal bovine serum, Gibco Invitrogen GmbH, Karlsruhe, Germany or PAN Biotech GmbH, Aidenbach, Germany). On the following day the cells are loaded with 2.13 μM Fluo-4 (Molecular Probes Europe BV, Leiden, Netherlands) in HBSS buffer (Hank's buffered saline solution, Gibco Invitrogen GmbH, Karlsruhe, Germany) with 2.5 mM probenecid (Sigma-Aldrich, Taufkirchen, Germany) and 10 mM HEPES (Sigma-Aldrich, Taufkirchen, Germany) for 60 min at 37° C. […] Sigma-Aldrich, Taufkirchen, Germany), 5.6 mM glucose and 0.05% gelatine (Merck KGaA, Darmstadt, Germany) is added. After a further incubation of 20 minutes at room temperature, the plates are inserted into the FLIPR for Ca^2+ measurement. Alternatively they are washed with buffer A (15 mM HEPES, 80 mM NaCl, 5 mM KCl, 1.2 mM CaCl2, 0.7 mM MgSO4, 2 g/l glucose, 2.5 mM probenecid) and loaded with buffer A with added 2.5 μM Fluo-4 and 0.025% Pluronic F127 (Sigma-Aldrich, Taufkirchen, Germany). The cells are then washed twice with buffer A and incubated for 30 minutes with buffer A, which additionally contains 0.05% BSA and 0.05% gelatine, at room temperature and then used for Ca^2+ measurement in the FLIPR. The Ca^2+-dependent fluorescence is measured here before and after addition of substances (λex=488 nm, λem=540 nm). The quantification is performed by measuring the highest fluorescence intensity (FC, fluorescence counts) over time. The FLIPR protocol comprises two additions of substance. […] Lys-Des-[…] bradykinin>=50 nM; rB1R: […] Antagonists lead to a suppression of the Ca^2+ inflow. The % inhibition in comparison with the maximum achievable inhibition is calculated. The substances are added in varying concentrations in order to determine the IC50 value. Double or triple determinations (n=2 or n=3) are performed and these are repeated in at least one further independent experiment (N>=2).
Regarding `COc1cc(C)c(S(=O)(=O)Nc2cccc3ccn(CCC(=O)N4CCC(CCN5CCCC5)CC4)c23)c(C)c1` [G_CC-41, 4-Methoxy-2,6-dimethyl-N-[1-[3-oxo-3-[4-(2-pyrrolidin-1-yl-ethyl)-piperidin-1-yl]-propyl]-1H-indol-7-yl]-benzenesulfonic acid amide], the inhibition – broadly, the change of the read-out against control, counted positive when it falls – at 10 µM came to 76%. The figure for `COc1cc(C)c(S(=O)(=O)Nc2cccc3ccn(CCC(=O)N4CCC(N5CCN(C)CC5)CC4)c23)c(C)c1` [G_CC-42, 4-Methoxy-2,6-dimethyl-N-[1-[3-[4-(4-methyl-piperazin-1-yl)-piperidin-1-yl]-3-oxo-propyl]-1H-indol-7-yl]-benzenesulfonic acid amide] is 66%; for `COc1cc(C)c(S(=O)(=O)Nc2cccc3ccn(CCC(=O)N4CCN(CCCN(C)C)CC4)c23)c(C)c1` [G_CC-44, N-[1-[3-[4-(3-Dimethylamino-propyl)-piperazin-1-yl]-3-oxo-propyl]-1H-indol-7-yl]-4-methoxy-2,6-dimethyl-benzenesulfonic acid amide] it is 73%; for `COc1cc(C)c(S(=O)(=O)Nc2cccc3ccn(CCC(=O)N4CCC(O)(c5ccccn5)CC4)c23)c(C)c1` [G_CC-45, N-[1-[3-(4-Hydroxy-4-pyridin-2-yl-piperidin-1-yl)-3-oxo-propyl]-1H-indol-7-yl]-4-methoxy-2,6-dimethyl-benzenesulfonic acid amide] it is 59%. Turning to `COc1cc(C)c(S(=O)(=O)Nc2cccc3ccn(CCC(=O)N(C)CCCN4CCC(c5cccs5)(N(C)C)CC4)c23)c(C)c1` [G_CC-46, N-[3-(4-Dimethylamino-4-thiophen-2-yl-piperidin-1-yl)-propyl]-3-[7-[[(4-methoxy-2,6-dimethyl-phenyl)sulfonyl]amino]-1H-indol-1-yl]-N-methyl-propionamide], the inhibition at 10 µM was found to be 94%. Then `COc1cc(C)c(S(=O)(=O)Nc2cccc3ccn(CCC(=O)N4CCC(c5ccccc5)(N(C)C)CC4)c23)c(C)c1` [G_CC-48, N-[1-[3-(4-Dimethylamino-4-phenyl-piperidin-1-yl)-3-oxo-propyl]-1H-indol-7-yl]-4-methoxy-2,6-dimethyl-benzenesulfonic acid amide], with 59%; and `COc1cc(C)c(S(=O)(=O)Nc2cccc3ccn(CCC(=O)N(C)CCCN4CCC(c5ccccc5)(N(C)C)CC4)c23)c(C)c1` [G_CC-49, N-[3-(4-Dimethylamino-4-phenyl-piperidin-1-yl)-propyl]-3-[7-[[(4-methoxy-2,6-dimethyl-phenyl)sulfonyl]amino]-1H-indol-1-yl]-N-methyl-propionamide], with 92%. As to `COc1cc(C)c(S(=O)(=O)Nc2cccc3ccn(CCC(=O)NC4CCC(c5ccccc5)(N5CCC5)CC4)c23)c(C)c1` (centres unmarked) [G_CC-50, N-[4-(Azetidin-1-yl)-4-phenyl-cyclohexyl]-3-[7-[[(4-methoxy-2,6-dimethyl-phenyl)sulfonyl]amino]-1H-indol-1-yl]-propionamide], the inhibition at 10 µM stood at 62%. The figure for `COc1cc(C)c(S(=O)(=O)Nc2cccc3ccn(CCC(=O)NCCN4CCC(c5cccs5)(N(C)C)CC4)c23)c(C)c1` [G_CC-51, N-[2-(4-Dimethylamino-4-thiophen-2-yl-piperidin-1-yl)-ethyl]-3-[7-[[(4-methoxy-2,6-dimethyl-phenyl)sulfonyl]amino]-1H-indol-1-yl]-propionamide] is 93%; for `O=C(CCn1ccc2cccc(NS(=O)(=O)c3ccccc3C(F)(F)F)c21)N1CCC2(CC1)CCN(c1ccncc1)CC2` [G_CC-52, N-[1-[3-Oxo-3-(3-pyridin-4-yl-3,9-diazaspiro[5.5]undecan-9-yl)-propyl]-1H-indol-7-yl]-2-(trifluoromethyl)-benzenesulfonic acid amide] it is 100%; for `O=C(Cn1ccc2cccc(NS(=O)(=O)c3ccccc3C(F)(F)F)c21)N1CCC2(CC1)CCN(c1ccncc1)CC2` [G_CC-53, N-[1-[2-Oxo-2-(3-pyridin-4-yl-3,9-diazaspiro[5.5]undecan-9-yl)-ethyl]-1H-indol-7-yl]-2-(trifluoromethyl)-benzenesulfonic acid amide] it is 101%. The figure for `CCN1CCN(CCCNC(=O)CCn2ccc3cccc(NS(=O)(=O)c4c(C)cc(OC)cc4C)c32)CC1` [G_CC-56, N-[3-(4-Ethyl-piperazin-1-yl)-propyl]-3-[7-[[(4-methoxy-2,6-dimethyl-phenyl)sulfonyl]amino]-1H-indol-1-yl]-propionamide] is 54%; for `COc1cc(C)c(S(=O)(=O)Nc2ccc3ccn(CC(=O)N4CCC(OCCN5CCCC5)(c5cccnc5)CC4)c3c2)c(C)c1` [G_CC-57, 4-Methoxy-2,6-dimethyl-N-[1-[2-oxo-2-[4-pyridin-3-yl-4-(2-pyrrolidin-1-yl-ethoxy)-piperidin-1-yl]-ethyl]-1H-indol-6-yl]-benzenesulfonic acid amide] it is 100%. Consider `Cc1cc(S(=O)(=O)Nc2cccc3ccn(CCC(=O)N4CCN(C5CCN(C)CC5)CC4)c23)c(C)cc1Cl` [G_CC-59, 4-Chloro-2,5-dimethyl-N-[1-[3-[4-(1-methyl-piperidin-4-yl)-piperazin-1-yl]-3-oxo-propyl]-1H-indol-7-yl]-benzenesulfonic acid amide], for which the inhibition at 10 µM was determined as 87%. The figure for `Cc1cc(S(=O)(=O)Nc2cccc3ccn(CCC(=O)N4CCC(CCN5CCCC5)CC4)c23)c(C)cc1Cl` [G_CC-60, 4-Chloro-2,5-dimethyl-N-[1-[3-oxo-3-[4-(2-pyrrolidin-1-yl-ethyl)-piperidin-1-yl]-propyl]-1H-indol-7-yl]-benzenesulfonic acid amide] is 87%; for `Cc1cc(S(=O)(=O)Nc2cccc3ccn(CCC(=O)N4CCC(N5CCN(C)CC5)CC4)c23)c(C)cc1Cl` [G_CC-61, 4-Chloro-2,5-dimethyl-N-[1-[3-[4-(4-methyl-piperazin-1-yl)-piperidin-1-yl]-3-oxo-propyl]-1H-indol-7-yl]-benzenesulfonic acid amide] it is 79%; for `O=C(CCn1ccc2ccc(N3Cc4cccc(Cl)c4C3=O)cc21)N1CCN(c2ccncc2)CC1` [G_CC-63, 7-Chloro-2-[1-[3-oxo-3-(4-pyridin-4-yl-piperazin-1-yl)-propyl]-1H-indol-6-yl]-2,3-dihydro-isoindol-1-one] it is 100%. Turning to `CN1CCC(CN2CCN(C(=O)CCn3ccc4ccc(N5Cc6cccc(Cl)c6C5=O)cc43)CC2)CC1` [G_CC-64, 7-Chloro-2-[1-[3-[4-[(1-methyl-piperidin-4-yl)-methyl]-piperazin-1-yl]-3-oxo-propyl]-1H-indol-6-yl]-2,3-dihydro-isoindol-1-one], the inhibition at 10 µM was found to be 89%. Then `Cc1cc(S(=O)(=O)Nc2ccc3ccn(CCC(=O)N4CCC5(CC4)CCN(c4ccncc4)CC5)c3c2)c(C)cc1Cl` [G_CC-65, 4-Chloro-2,5-dimethyl-N-[1-[3-oxo-3-(3-pyridin-4-yl-3,9-diazaspiro[5.5]undecan-9-yl)-propyl]-1H-indol-6-yl]-benzenesulfonic acid amide], with 53%. `O=C(CCn1ccc2ccc(N3Cc4cccc(Cl)c4C3=O)cc21)N1CCC2(CC1)CCN(Cc1ccc(F)cc1)C2=O` [G_CC-66, 8-[3-[6-(4-Chloro-3-oxo-1,2-dihydro-isoindol-2-yl)-1H-indol-1-yl]-propanoyl]-3-[(4-fluorophenyl)-methyl]-3,8-diazaspiro[4.5]decan-4-one]: the inhibition at 10 µM was determined as 52%.
